Experimental data reported in patent publication US20260306460A1, “COMPOSITION FOR REMOVING AND INHIBITING SENESCENT CELLS, AND USES THEREOF” (LIFECEUTIX CO., LTD., priority 2023, published 2026).

Columns and labels:
[1] = test system: proliferating A549 cells; assay: Survival of proliferating A549 cells treated with supernatant from death-induced cancer cells, Example 14; type: cell-based, human; conditions: for viability at 30 µM: Homo sapiens
Description: In the same way as Examples 12 and 13, senescence of cancer (A549) cells was induced by treatment with doxorubicin or the control group (DMSO), and the cells were cultured. The cells were treated with LX-405 at a concentration of 30 μM. 3 days later, cell viability was measured using CellTiter-Glo Luminescent Cell Viability Assay (Promega) or an optical microscope. In the same manner as in Example 13, the medium supernatants comprising secreted fluid from normally proliferating and senescent cancer cells was obtained. Normally proliferating and senescent-induced cancer cells were treated with the medium supernatants.

[2] = test system: non-senescent proliferating human cells; assay: Effect on non-senescent (proliferating) human cells; type: cell-based; conditions: normally proliferating foreskin cells; 30 μM, 3 days
Excerpt: Based on the results of Example 10 of WO2023-085787 A1, compounds that induce the death of senescent cells through a mechanism similar to LX-112, unlike existing senescent cell removers such as ABT-263, were screened based on HMGN1. […] The following test compounds were synthesized by and purchased from Medchemexpress, Selleckchem, Cayman, Medkoo, Sigma, Molport, Enzo, TCI, Santa Cruz, REONSIMI, Abcam, Alfa Aesar, APExBIO, BOCSCI, Merck, Thermo Fisher Scientific, R&D Systems, ChemFaces, Aobious, etc. […] In cells in which senescence was not induced by treatment with the control group (DMSO), the amount of HMGN1 above the effective value (sensitivity: 35 pg/ml), analysis limit, was not detected in both untreated and treated conditions with the test compound. On the other hand, in cells where senescence was induced by treatment with doxorubicin, the amount of HMGN1 was measured at 80 to 90 pg/ml. […]
After 3 days, cell viability was measured using CellTiter-Glo Luminescent Cell Viability Assay (Promega) or light microscopy.
Using the same method as Example 11, compounds that induce senescent cell death through a mechanism similar to that of LX-112 (ethaselen (1,2-[bis(1,2-benzisoselenazolone-3 (2H)-ketone)]ethane)) were screened based on HMGN1 and others. […] On the other hand, in cells senescent with doxorubicin, an amount of HMGN1 of […] was measured. […]

[3] = test system: obesity-induced aged C57BL6J mice; assay: p16, MMP3, IL6 mRNA in groin fat of obese aged mice given senescent cells killed by test compound, Example 16; type: in vivo, mouse; conditions: no administration = 100%
Excerpt: To obtain preadipocytes, groin fat tissue was collected from an 8-week-old female C57BL6J mouse (KRIBB Laboratory Animal Resource Center). The fat tissue was cut into small pieces and treated with collagenase to decompose the fat tissue, then centrifuged to collect the stromal vascular fraction (SVF) containing preadipocytes. It was washed with a washing medium (HBSS, GenDEPOT; 3.5% Albumin Fraction V, GenDEPOT; 100 U/ml Penicillin & Streptomycin, Invitrogen), mixed again, and extracted by filtering through a 100 μm nylon mesh. The isolated preadipocytes were cultured in the designated medium (DMEM, GenDEPOT; 20% FBS, GenDEPOT; 100 U/ml Penicillin & Streptomycin, Invitrogen). In the same manner as Example 1 of WO2023-085787 A1, cells were treated with doxorubicin at a concentration of 250 nM for 24 hours and cultured for an additional 21 days to induce cell senescence. […] By treating the test compound in the same manner as in Example 13, it was confirmed using an optical microscope that the death of most senescent cells was induced. […] Afterwards, the mouse was sacrificed in the same manner as in Example 7-2 of WO2023-085787 A1, total RNA was extracted from the groin fat tissue, and qRT-PCR was performed and analyzed using the synthesized cDNA. […] The mRNA amount of p16, MMP3, and IL6 without administration of senescent cells whose death was induced by the test compound were calculated as 100%, and the amount of p16, MMP3, and IL6 after administration of the senescent cells whose death was induced by the test compound were compared with them. […] The amount of activity evaluation without administration of senescent cells whose death was induced by the test compound was calculated as 100% and compared it with the amount of activity evaluation after administration of senescent cells whose death was induced by the test compound. […]

[4] = senescent preadipocytes killed by test compound sc

Row | Structure (SMILES) | Survival ([1]; A549, supernatant from No Cells) | viability at 30 µM ([1]; A549, A549, supernatant from death-induced proliferating cells) [%] | viability at 30 µM ([1]; A549, A549, supernatant from death-induced senescent cells) [%] | induced death of cells [2] | IL6 mRNA [3, 4] | MMP3 mRNA [3, 4] | p16 mRNA ([3]; senescent preadipocytes killed by test compound, 5×10^5 cells sc)
1 | COC(=O)c1ccc([C@H]2c3[nH]c4ccccc4c3C[C@H](C(=O)OC)N2C(=O)CCl)cc1 [LX-405] | 101.4 (±1.3) % | 98.6 | 105 | induced the death of most cells |  |  | 
2 | S=C(N/N=C1\CCCc2cccnc21)N1CCN(c2ccccn2)CC1 [LX-801] |  |  |  |  | 79.4 (±4.6) % | 81.7 (±2.9) % | 79.8 (±3.4) %
